Assay results from patent US11459325B2, “Heterocyclic compound” (Takeda Pharmaceutical Company Limited, priority 2018, dated 2022).

Each compound was assayed on GBA mutant human fibroblasts GM008760 (assay: Glucosylceramide lowering assay). Settings: Homo sapiens, Fibroblast, 96 h; 10 μM test compound, 4 days culture; GlcCer (C16:0)/Cer (C16:0) molar ratio of test compound group relative to DMSO control group x100; smaller value = glucosylceramide lowering.
Type: cell-based
Protocol: Glucosylceramide Lowering Assay
Using GBA mutant human fibroblasts containing mutated glucosylceramidase, the effect of test compounds on glucosylceramide reduction was evaluated.
GBA mutant human fibroblasts GM008760 (Coriel Institute) were seeded in a 96-well multiwell plate at a density of 5,000 cells/100 μL culture solution/well. GlutaMAX (Thermo Fishcer Scientific), penicillin-streptomycin, and Minimum Essential Media (Thermo Fishcer Scientific) supplemented with 15% fetal bovine serum were used as a culture solution. After culturing for 2 days, a 10 mM DMSO solution of the test compound diluted with the culture solution was added to a 96-well plate by 100 μL to adjust a final test compound concentration to 10 μM. After culturing the cells for 4 days in the presence of the test compound, the culture solution was removed, and the cells adhered to the 96-well plate were washed with a phosphate buffer (ThermoFisher Scientific, product number 14190-144). A solvent composed of 50% ethanol and 50% isopropanol was added to the 96-well plate by 100 μL, and the intracellular lipids were dissolved by pipetting. A solution prepared by dissolving N-Octadecanoyl-D35-psychosine (50 ng/mL, Matreya LLC Inc.) as an internal standard in 50% ethanol and 50% isopropanol was added to the sample in an equal volume, and 2.5 μL of the centrifuged supernatant was used as the test compound group.
In the same manner as above, a control group was prepared by using DMSO instead of the 10 mM DMSO solution of the test compound.
For the test compound group and the control group, molar concentrations of glucosylceramide [GlcCer (C16:0)] and ceramide [Cer (C16:0)] were quantified using Rapidfire-MS/MS (API-5000, Turbo-ESI, SRM), and the glucosylceramide lowering effect of the test compound group relative to the control group was evaluated by the following formula. (GlcCer/Cer of test compound group)/(GlcCer/Cer of control group)×100 wherein GlcCer/Cer is the ratio of the molar concentration of glucosylceramide to that of ceramide.
In this test, when the numerical value obtained by the above calculation formula is small, glucosylceramide is metabolized to ceramide by the test compound, or the synthesis of glucosylceramide from ceramide is inhibited by the test compound, that is, it can be said that the test compound has a glucosylceramide lowering effect.
Compound `Cc1cn(C)c(=O)c2c(C(=O)N[C@H]3CCC[C@@H]3c3ccccc3)cn(C)c12` (racemic) [Example 110, 1,5,7-trimethyl-4-oxo-N-[rac-(1S,2R)-2-phenylcyclopentyl]-4,5-dihydro-1H-pyrrolo[3,2-c]pyridine-3-carboxamide] has an activity at 10 µM of 58%. Work on `Cc1cn(C)c(=O)c2c(C(=O)N[C@H]3CCC[C@H]3c3ccccc3)cn(C)c12` (racemic) [Example 111, 1,5,7-trimethyl-4-oxo-N-[rac-(1S,2S)-2-phenylcyclopentyl]-4,5-dihydro-1H-pyrrolo[3,2-c]pyridine-3-carboxamide] yielded an activity at 10 µM of 61%. For `Cc1cn(C)c(=O)c2c(C(=O)N[C@H]3CCCC[C@@H]3c3ccccc3)cn(C)c12` (racemic) [Example 112, 1,5,7-trimethyl-4-oxo-N-[rac-(1S,2R)-2-phenylcyclohexyl]-4,5-dihydro-1H-pyrrolo[3,2-c]pyridine-3-carboxamide], the activity at 10 µM was 61%. `Cc1cn(C)c(=O)c2c(C(=O)N[C@H]3CCCC[C@H]3c3ccccc3)cn(C)c12` (racemic) [Example 113, 1,5,7-trimethyl-4-oxo-N-[rac-(1S,2S)-2-phenylcyclohexyl]-4,5-dihydro-1H-pyrrolo[3,2-c]pyridine-3-carboxamide] gave an activity at 10 µM of 41%. Compound `Cc1cn(C)c(=O)c2c(C(=O)N[C@H]3CCC[C@H](c4ccccc4)C3)cn(C)c12` (racemic) [Example 114, 1,5,7-trimethyl-4-oxo-N-[rac-(1S,3S)-3-phenylcyclohexyl]-4,5-dihydro-1H-pyrrolo[3,2-c]pyridine-3-carboxamide] has an activity at 10 µM of 58%. `CCCCO[C@H]1CC[C@H](NC(=O)c2cn(C)c3c(C)cn(C)c(=O)c23)CC1` [Example 2, N-(trans-4-butoxycyclohexyl)-1,5,7-trimethyl-4-oxo-4,5-dihydro-1H-pyrrolo[3,2-c]pyridine-3-carboxamide] showed an activity at 10 µM of 87%. In the case of `Cc1cn(C)c(=O)c2c(C(=O)NC3CCC(c4ccccc4)CC3)cn(C)c12` (centres unmarked) [Example 21, 1,5,7-trimethyl-4-oxo-N-(4-phenylcyclohexyl)-4,5-dihydro-1H-pyrrolo[3,2-c]pyridine-3-carboxamide], the activity at 10 µM is reported as 67%. `COc1cc(NC(=O)c2cn(C)c3c(C)cn(C)c(=O)c23)ccn1` [Example 36, N-(2-methoxypyridin-4-yl)-1,5,7-trimethyl-4-oxo-4,5-dihydro-1H-pyrrolo[3,2-c] pyridine-3-carboxamide] gave an activity at 10 µM of 65%. For `COc1ccnc(NC(=O)c2cn(C)c3c(C)cn(C)c(=O)c23)c1` [Example 37, N-(4-methoxypyridin-2-yl)-1,5,7-trimethyl-4-oxo-4,5-dihydro-1H-pyrrolo[3,2-c] pyridine-3-carboxamide], the activity at 10 µM was 68%. For `Cc1cn(C)c(=O)c2c(C(=O)Nc3ccc(C#N)cn3)cn(C)c12` [Example 40, N-(5-cyanopyridin-2-yl)-1,5,7-trimethyl-4-oxo-4,5-dihydro-1H-pyrrolo[3,2-c]pyridine-3-carboxamide], the activity at 10 µM was 62%. For `CCCCOC1CCCC(NC(=O)c2cn(C)c3c(C)cn(C)c(=O)c23)C1` (centres unmarked) [Example 57, N-(3-butoxycyclohexyl)-1,5,7-trimethyl-4-oxo-4,5-dihydro-1H-pyrrolo[3,2-c]pyridine-3-carboxamide], the activity at 10 µM was 65%. Compound `Cc1cn(C)c(=O)c2c(C(=O)N3CCC(c4ccc(Cl)cc4)C3)cn(C)c12` (centres unmarked) [Example 71, 3-((3-(4-chlorophenyl)pyrrolidin-1-yl)carbonyl)-1,5,7-trimethyl-1,5-dihydro-4H-pyrrolo[3,2-c]pyridin-4-one] has an activity at 10 µM of 68%. `Cc1cn(C)c(=O)c2c(C(=O)N3CC4CC4(c4ccc(Cl)cc4)C3)cn(C)c12` (centres unmarked) [Example 72, 3-((1-(4-chlorophenyl)-3-azabicyclo[3.1.0]hex-3-yl)carbonyl)-1,5,7-trimethyl-1,5-dihydro-4H-pyrrolo[3,2-c]pyridin-4-one] showed an activity at 10 µM of 38%. Compound `Cc1cn(C)c(=O)c2c(C(=O)N3CCC3c3ccccc3)cn(C)c12` (centres unmarked) [Example 83, 1,5,7-trimethyl-3-((2-phenylazetidin-1-yl)carbonyl)-1,5-dihydro-4H-pyrrolo[3,2-c]pyridin-4-one] has an activity at 10 µM of 49%.
